Measurements taken from US20250304560A1, “MODULATORS OF NLRP3 INFLAMMASOME AND RELATED PRODUCTS AND METHODS” (Neumora Therapeutics, Inc., priority 2022, published 2025).
Where two headings read alike, the source gives them in different places.

Experiments:
[1] = molecular target: T1, hERG channels (Homo sapiens, UniProt Q12809); test: hERG assay, whole-cell patch-clamp in CHO-hERG cells; assay type: cell-based; conditions: for IC50: whole-cell patch-clamp, CHO-hERG cells
T1 construct: host or cells: CHO-hERG cells
Method: CHO-hERG cells (Sophion Biosciences (Ballerup, Denmark), subcultured and frozen in WuXi AppTec (Suzhou) Co., Ltd.), stored in liquid nitrogen, were tested and determined to be free from mycoplasma contamination. Cells were not used after the 30th passage. CHO-hERG cells were cultured in a humidified incubator of 5% CO2 (4% to 8%) in air at 37° C. (±2° C.). The cells were recovered with recovery medium (F12 medium with 10% fetal bovine serum), subcultured in complete medium (F12 medium, supplemented with 10% fetal bovine serum, 1% Geneticin® selective antibiotic (G418), 89 μg/mL Hygromycin B (HB)), and the culture medium was switched to recovery medium in the last subculture before patch-clamp experiment.
To determine the compounds' IC50, select compounds (“test articles”) were dissolved into DMSO, and then diluted with ECS to get working solutions. Five concentrations of 0.3, 1, 3, 10, and 30 μM were tested. Two replicate cells for each concentration were tested.
Exponentially growing CHO-hERG cells were collected and suspended in extracellular solution for use. The hERG current was recorded at physiological temperature (33.0° C. to 37.0° C.) using whole-cell patch-clamp techniques. Output signals from the patch-clamp amplifier were digitized and low-pass filtered at 2.9 KHz. The recording was controlled with Patchmaster Pro software. The recording chamber with seeded cells was mounted on an inverted microscope stage. A cell in the recording chamber was randomly selected for testing. The cell was continuously perfused from the perfusion system. A micropipette filled with ICS was used as recording electrode in the manual patch-clamp study. The micropipette was prepared on the day of the patch-clamp experiment using glass capillaries (BF150-117-10, SUTTER INSTRUMENT USA). The pipette resistance (Rp) was within 2 to 5 MΩ with ICS filled. From the holding potential of-80 mV, the voltage was increased to +60 mV for 850 ms to open the hERG channels. After that, the voltage was decreased to-50 mV for 1275 ms, causing a “rebound” or tail current, the peak tail current was measured and collected for data analysis. Finally, the voltage was decreased to the holding potential (−80 mV). This command voltage protocol was repeated every 15 s continuously during the test article application.
During the initial recording period with vehicle control working solution, the peak tail current amplitude was monitored until it had been stable for at least 3 sweeps. Cells were then perfused with test article/positive control working solutions until the peak tail current amplitude reached steady state. Steady state was considered reached when three consecutive super-imposable peak tail currents were collected. At this point, cells were once again perfused with next concentration of test article. One or more test articles/positive control or different concentrations of the same test article were tested on each cell with vehicle control washout until the current amplitude returned to values at least 80% of those measured before application of test article. […] At least 2 replicate cells for each concentration were tested. […] (Milnes, J. T., et al.)
Seal criteria: When acquiring whole-cell configuration, a holding potential (e.g.,-80 mV) was applied while membrane parameters were collected (Cm, Rm and Rs). A “good” whole-cell recording was generally defined as: series resistance (Rs) was less than 10 MΩ; membrane resistance (Rm) was more than 500 MΩ and membrane capacitance (Cm) was less than 100 pF. Current amplitude: The peak current amplitude must be between 400 pA and 5000 pA before the test article/positive control application; otherwise the cell was discarded. Leak criteria: At-80 mV holding potential, the absolute leak current value must be less than 200 pA. The amplitude of current was adjusted with leak current at-80 mV. The sweeps which absolute leak current value was more than 200 pA was not used in data analysis.

[2] = tested on: IL-6; test: IL-6 AlphaLISA in LPS-primed THP1 macrophages
[3] = molecular target: NLRP3 inflammasome (Homo sapiens, UniProt Q96P20); test: NLRP3 inflammasome activation in THP1 macrophages, IL-1β AlphaLISA
[4] = Homo sapiens, THP-1, read-out: IL-6 Activity, LPS-primed THP1 macrophages, Table 11 comparison
[5] = IL-1β Activity, THP1 macrophages, Table 11 comparison
[6] = Homo sapiens, THP-1, read-out: IL-6 Activity (μM), THP1 macrophages, PMA, LPS priming, nigericin 6.7 uM
[7] = IL-1β Activity (nM), THP1 macrophages, PMA, LPS priming, nigericin 6.7 uM activation
[8] = Homo sapiens, THP-1, read-out: IL-6 Activity (μM)

T1 sequence (Q12809 whole entry): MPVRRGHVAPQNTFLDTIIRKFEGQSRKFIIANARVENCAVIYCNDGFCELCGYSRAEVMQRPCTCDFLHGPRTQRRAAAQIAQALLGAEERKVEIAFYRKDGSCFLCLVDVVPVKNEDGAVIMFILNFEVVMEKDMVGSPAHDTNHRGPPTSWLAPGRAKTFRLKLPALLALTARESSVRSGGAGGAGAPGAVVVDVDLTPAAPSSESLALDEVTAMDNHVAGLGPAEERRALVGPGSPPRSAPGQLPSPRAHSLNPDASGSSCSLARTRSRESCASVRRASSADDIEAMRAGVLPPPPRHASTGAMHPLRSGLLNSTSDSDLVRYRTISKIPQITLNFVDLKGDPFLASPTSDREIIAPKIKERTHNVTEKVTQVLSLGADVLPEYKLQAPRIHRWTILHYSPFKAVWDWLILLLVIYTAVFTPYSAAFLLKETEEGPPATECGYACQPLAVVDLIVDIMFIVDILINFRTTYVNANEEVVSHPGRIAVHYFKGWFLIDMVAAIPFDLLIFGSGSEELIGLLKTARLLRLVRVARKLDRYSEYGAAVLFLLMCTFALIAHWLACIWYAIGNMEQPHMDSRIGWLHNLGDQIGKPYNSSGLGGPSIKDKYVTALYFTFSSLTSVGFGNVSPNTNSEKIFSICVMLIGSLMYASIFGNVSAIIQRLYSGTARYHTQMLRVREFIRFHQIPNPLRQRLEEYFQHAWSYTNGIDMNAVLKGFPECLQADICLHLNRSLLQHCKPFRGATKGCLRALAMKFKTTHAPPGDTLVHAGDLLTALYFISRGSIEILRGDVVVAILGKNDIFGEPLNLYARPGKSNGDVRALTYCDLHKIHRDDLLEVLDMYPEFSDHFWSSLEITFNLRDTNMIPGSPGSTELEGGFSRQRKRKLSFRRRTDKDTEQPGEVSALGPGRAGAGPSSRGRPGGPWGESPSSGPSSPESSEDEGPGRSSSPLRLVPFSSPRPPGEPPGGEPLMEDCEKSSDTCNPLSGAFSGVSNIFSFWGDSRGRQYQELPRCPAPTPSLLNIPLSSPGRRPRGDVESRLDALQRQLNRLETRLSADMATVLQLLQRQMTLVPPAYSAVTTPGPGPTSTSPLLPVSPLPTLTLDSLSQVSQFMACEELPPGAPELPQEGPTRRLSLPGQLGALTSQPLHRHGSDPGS
NLRP3 inflammasome, sequence (Q96P20 whole entry): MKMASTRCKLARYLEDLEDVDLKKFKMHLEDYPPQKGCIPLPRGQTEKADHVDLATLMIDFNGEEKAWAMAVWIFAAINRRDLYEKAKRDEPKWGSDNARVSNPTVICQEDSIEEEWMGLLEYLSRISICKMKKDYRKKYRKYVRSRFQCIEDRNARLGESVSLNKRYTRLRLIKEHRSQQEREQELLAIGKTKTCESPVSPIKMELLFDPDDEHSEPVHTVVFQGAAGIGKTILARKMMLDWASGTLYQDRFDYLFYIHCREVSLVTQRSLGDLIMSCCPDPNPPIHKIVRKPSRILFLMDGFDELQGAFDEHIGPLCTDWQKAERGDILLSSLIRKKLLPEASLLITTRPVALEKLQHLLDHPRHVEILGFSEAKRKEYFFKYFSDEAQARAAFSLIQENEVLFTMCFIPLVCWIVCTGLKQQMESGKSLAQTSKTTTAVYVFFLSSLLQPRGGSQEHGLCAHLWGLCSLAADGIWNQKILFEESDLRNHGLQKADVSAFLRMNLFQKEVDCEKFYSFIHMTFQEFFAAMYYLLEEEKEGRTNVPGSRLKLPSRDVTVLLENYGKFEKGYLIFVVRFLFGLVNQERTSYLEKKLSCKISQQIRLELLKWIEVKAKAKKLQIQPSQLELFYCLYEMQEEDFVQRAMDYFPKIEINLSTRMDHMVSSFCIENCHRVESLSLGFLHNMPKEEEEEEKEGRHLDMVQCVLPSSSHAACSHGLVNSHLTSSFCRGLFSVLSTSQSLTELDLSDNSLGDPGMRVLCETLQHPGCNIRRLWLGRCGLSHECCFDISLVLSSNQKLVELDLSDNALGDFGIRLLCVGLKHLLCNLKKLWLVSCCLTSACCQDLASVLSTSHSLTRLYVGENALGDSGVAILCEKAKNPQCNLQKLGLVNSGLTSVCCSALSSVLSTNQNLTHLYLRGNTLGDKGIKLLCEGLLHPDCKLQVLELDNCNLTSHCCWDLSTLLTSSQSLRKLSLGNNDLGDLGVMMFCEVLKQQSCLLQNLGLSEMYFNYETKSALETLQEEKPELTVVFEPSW

IC50 [2, 6] | IC50 [3, 7] | IC50 [2, 8] | IC50 [3] | SMILES | other results
– | – | – | – | Cc1ccc(-c2nnc(N[C@@H]3CCCN(C)C3)cc2C)c(O)c1 [C, reference compound] | hERG inhibition (in words) [1]: high; IC50 ([1]; Table 11 comparison): 10 to 20 µM; IC50 [2, 4]: > 10 µM; IL-1ß activity (in words) [3]: potent; IC50 [3, 5]: < 1 nM
> 10 µM | 10 to 100 nM | – | – | Cc1cc(F)cc(O)c1-c1ccc(N(C)[C@@H]2CCCN(C)C2)nn1 [compound 22] | hERG inhibition (in words) [1]: unexpectedly low; IC50 ([1]; 33.0-37.0 °C, Table 10): > 30 µM; IC50 ([1]; Table 11 comparison): > 30 µM; IL-6 activity (in words) [2]: potent; IC50 [2, 4]: > 10 µM; IL-1ß activity (in words) [3]: potent; IC50 [3, 5]: 10 to 100 nM
5 to 10 µM | – | – | – | Cc1cc(N[C@@H]2CCCN(C)C2)nnc1-c1ccc(C2CC2)cc1O [compound 3] | hERG inhibition (in words) [1]: high; IC50 ([1]; 33.0-37.0 °C, Table 10): 3 to 10 µM; IC50 ([1]; Table 11 comparison): 3 to 10 µM; IC50 [2, 4]: 5 to 10 µM
5 to 10 µM | < 1 nM | – | – | Cc1cc(N[C@@H]2CCCN(C)C2)nnc1-c1cccc(C)c1O [compound 67] | IC50 ([1]; 33.0-37.0 °C, Table 10): 10 to 20 µM
– | – | – | – | Cc1cc(N[C@@H]2CCCN(C)C2)nnc1-c1ccc(OC(F)(F)F)cc1O [B, reference compound] | hERG inhibition (in words) [1]: high; IC50 ([1]; Table 11 comparison): 1 to 3 µM; IC50 [2, 4]: > 10 µM; IL-1ß activity (in words) [3]: potent
< 1 µM | 1 to 10 nM | – | – | Cc1cc(N[C@@H]2CCCN(C)C2)nnc1-c1ccc(F)cc1O [compound 1] | IC50 ([1]; 33.0-37.0 °C, Table 10): 20 to 30 µM
– | – | > 10 µM | 10 to 100 nM | Cc1cc(O[C@@H]2CCCN(C)C2)nnc1-c1ccc(F)cc1O [compound 34] | IC50 ([1]; 33.0-37.0 °C, Table 10): > 30 µM
– | – | – | – | Cc1cc(N[C@@H]2CCCN(C)C2)nnc1-c1ccc(C(F)(F)F)cc1O [A, reference compound] | hERG inhibition (in words) [1]: high; IC50 ([1]; Table 11 comparison): ≤ 1 µM; IC50 [2, 4]: > 10 µM
5 to 10 µM | 10 to 100 nM | – | – | Cc1cccc(O)c1-c1ccc(N(C)[C@@H]2CCCN(C)C2)nn1 [compound 21, (R)-3-methyl-2-(6-(methyl (1-methylpiperidin-3-yl)amino)pyridazin-3-yl) phenol] | hERG inhibition (in words) [1]: unexpectedly low; IC50 ([1]; 33.0-37.0 °C, Table 10): > 30 µM; IC50 ([1]; Table 11 comparison): > 30 µM; IL-6 activity (in words) [2]: potent; IC50 [2, 4]: 5 to 10 µM; IL-1ß activity (in words) [3]: potent; IC50 [3, 5]: 10 to 100 nM
– | – | > 10 µM | 100 to 500 nM | Cc1cc(N2CCC[C@@H](N(C)C)C2)nnc1-c1ccccc1O [compound 111] | –
– | – | > 10 µM | 500 to 1000 nM | Cc1cc(NC[C@@H]2CCCO2)nnc1-c1ccccc1O [compound 117] | –
> 10 µM | 1 to 10 nM | – | – | Cc1cccc(-c2ccc(N[C@@H]3CCCN(C)C3)nn2)c1O [compound 5] | –
5 to 10 µM | 10 to 100 nM | – | – | Cc1c(F)ccc(-c2ccc(N[C@@H]3CCCN(C)C3)nn2)c1O [compound 10] | –
1 to 5 µM | 1 to 10 nM | – | – | Cc1cccc(O)c1-c1ccc(N[C@@H]2CCCN(C)C2)nn1 [compound 7] | IC50 ([1]; 33.0-37.0 °C, Table 10): > 30 µM
– | – | > 10 µM | 100 to 500 nM | Cc1cc(O[C@@H]2CCCN(C)C2)nnc1-c1ccc(C#N)cc1O [compound 100] | –
– | – | – | – | Cc1cc(N[C@@H]2CCCN(C)C2)nnc1-c1ccc(Cl)cc1O [D, reference compound] | hERG inhibition (in words) [1]: high; IC50 ([1]; Table 11 comparison): 3 to 10 µM; IC50 [2, 4]: > 10 µM; IL-1ß activity (in words) [3]: potent
– | < 1 nM | – | – | CCc1ccc(-c2nnc(N[C@@H]3CCCN(C)C3)cc2C)c(O)c1 [compound 15] | hERG inhibition (in words) [1]: high; IC50 ([1]; 33.0-37.0 °C, Table 10): 3 to 10 µM; IC50 ([1]; Table 11 comparison): 3 to 10 µM; IL-1ß activity (in words) [3]: potent; IC50 [3, 5]: < 1 nM
5 to 10 µM | > 1000 nM | – | – | Cc1cccc(-c2ccc(N(C)[C@@H]3CCCN(C)C3)nn2)c1O [compound 18] | –
– | – | > 10 µM | 1 to 10 nM | Cc1cc(C[C@H]2CCCN(C)C2)nnc1-c1ccc(C(F)(F)F)cc1O [compound 104] | –
> 10 µM | 10 to 100 nM | – | – | Cc1cc(N[C@@H]2CCCN(C)C2)nnc1-c1ccc(C(=O)O)cc1O [compound 92] | –
> 10 µM | > 1000 nM | – | – | CN1CCC[C@@H](N(C)c2ccc(-c3ccccc3O)nn2)C1 [compound 17] | –
– | – | 5 to 10 µM | 100 to 500 nM | Cc1cc(N[C@@H]2CCCN(C)C2)nnc1-c1ncc(F)cc1O [compound 109] | –

IC50 [2, 6] | IC50 [3, 7] | IC50 [2, 8] | IC50 [3] | SMILES | other results
> 10 µM | 10 to 100 nM | – | – | Cc1cc(N[C@H]2CN(C)CC[C@@H]2F)nnc1-c1ccc(F)cc1O [compound 48] | –
> 10 µM | 100 to 500 nM | – | – | Cc1cc(N[C@H]2CN(C)CC(F)(F)C2)nnc1-c1ccc(F)cc1O [compound 45] | –
– | – | > 10 µM | 10 to 100 nM | Cc1cc(N(C)[C@@H]2CCN(C)C2)nnc1-c1ccc(C(F)(F)F)cc1O [compound 97] | –
> 10 µM | 10 to 100 nM | – | – | Cc1cc(N[C@@H]2C[C@H](F)CN(C)C2)nnc1-c1ccc(F)cc1O [compound 47] | –
– | – | > 10 µM | > 1000 nM | Cc1cc(NCC23CC(CO2)C3)nnc1-c1ccccc1O [compound 118] | –
– | – | > 10 µM | > 1000 nM | Cc1cc(NC[C@H]2CCCN2C)nnc1-c1ccccc1O [compound 122] | –
– | < 1 nM | – | – | Cc1cc(N[C@@H]2CCCN(C)C2)nnc1-c1ccc(F)c(C)c1O [compound 63] | IC50 ([2]; read-out: IL-6 Activity, THP1 macrophages, PMA, LPS priming, nigericin 6.7 uM): > 10 µM
– | – | > 10 µM | 1 to 10 nM | Cc1cc(C2CC2)cc(O)c1-c1ccc(N[C@@H]2CCCN(C)C2)nn1 [compound 13] | –
– | – | > 10 µM | > 1000 nM | CN1CC[C@@H](N(C)c2ccc(-c3ccc(F)cc3O)nn2)C1 [compound 32] | –
> 10 µM | < 1 nM | – | – | CCN1CCC[C@@H](Nc2cc(C)c(-c3ccccc3O)nn2)C1 [compound 56] | –
5 to 10 µM | < 1 nM | – | – | Cc1cc(F)cc(O)c1-c1ccc(N[C@@H]2CCCN(C)C2)nn1 [compound 6] | –
> 10 µM | 1 to 10 nM | – | – | Cc1cc(N[C@@H]2CCCN(C)C2)nnc1-c1c(C)cc(F)cc1O [compound 62] | –
> 10 µM | 1 to 10 nM | – | – | CN1CCC[C@@H](Nc2cc(F)c(-c3ccccc3O)nn2)C1 [compound 52] | –
> 10 µM | 10 to 100 nM | – | – | Cc1cc(N[C@@H]2C[C@H](F)CN(C)C2)nnc1-c1ccccc1O [compound 42] | –
– | – | > 10 µM | > 1000 nM | CN1CC[C@@H](N(C)c2ccc(-c3ccccc3O)nn2)C1 [compound 33] | –
5 to 10 µM | < 1 nM | – | – | Cc1cc(N[C@@H]2CCCN(C(C)C)C2)nnc1-c1ccccc1O [compound 57] | –
5 to 10 µM | < 1 nM | – | – | Cc1cc(N[C@@H]2CCCN(C(C)C)C2)nnc1-c1ccc(F)cc1O [compound 59] | –
> 10 µM | > 1000 nM | – | – | Cc1cc(-c2ccccc2O)nnc1N[C@@H]1CCCN(CCF)C1 [compound 85] | –
> 10 µM | < 1 nM | – | – | CCN1CCC[C@@H](Nc2ccc(-c3c(C)cc(F)cc3O)nn2)C1 [compound 60] | –
5 to 10 µM | 1 to 10 nM | – | – | Cc1cc(-c2ccc(F)c(C)c2O)nnc1N[C@@H]1CCCN(C)C1 [compound 80] | –
– | – | > 10 µM | 100 to 500 nM | Cc1cc(CC2CCCN(C)C2)nnc1-c1ccc(C#N)cc1O (centres unmarked) [compound 102] | –
